Assay results taken from patent publication US9567347B2, “Use of small molecule inhibitors targeting the interaction between RAC GTPase and p67(phox)” (CHILDREN'S HOSPITAL MEDICAL CENTER, priority 2012, dated 2017).
Read-outs that look alike come from different tables or passages of the source.

Columns and labels:
[1] = test system: fMLP-stimulated differentiated HL-60 cells; experiment: H2-DCFDA FACS ROS production assay in fMLP-stimulated differentiated HL-60 cells; assay type: cell-based, human; conditions: for IC50: dHL-60 cells, DCFDA assay; for inhibition of ROS production, Phox-I1 analogs: FIG. 3B
Experimental: HL-60 cells were propagated in RPMI 1640 medium containing 10% heat inactivated fetal bovine serum, 2 mM L-glutamine, 100 U/mL penicillin/streptomycin at 37° C. in air containing 5% CO2. For differentiation, HL-60 cells were cultured in 1.3% dimethyl sulfoxide (DMSO) as previously described (Servant, G., et al. (1999) Mol Biol Cell 10, 1163-1178, hereby incorporated by reference in its entirety). Primary murine neutrophils were isolated from C57Bl/6 mouse bone marrow according to a published protocol (Filippi et al., (2004) Nat Immunol 5, 744-751, hereby incorporated by reference in its entirety) using a discontinuous Percoll (Pharmacia) gradient and were utilized immediately in experiments. Human neutrophils were obtained from fresh blood (IRB #2010-1855, Cincinnati Children's Hospital medical Center) following a well established protocol using density gradient separation from whole blood (Oh et al. (2008) J Vis Exp., 17, pii: 745, hereby incorporated by reference in its entirety).
Cells (5×10^5) were harvested and processed for Annexin V/7AAD staining according to manufacturer's protocol (Becton Dickinson). Flow cytometry data were acquired on a FACS Canto bench-top flow cytometer (Becton Dickinson) and the cell cycle distributions were determined by […] using Flo-Jo software (Bosco et al (2010) Blood 115, 3320-3328, hereby incorporated by reference in its entirety). For ROS production assay, primary murine neutrophils or dHL60 cells were incubated with compound for 2 hours prior to addition of H2-DCFDA according to manufacturer's instructions (Molecular Probes). Cells were then stimulated with 10 μM fMLP (Sigma), 1 mM CaCl2, and 1.5 mM MgCl2 for 15 minutes prior to wash and FACS analysis for mean fluorescence intensity. Non-fMLP stimulated control values were subtracted from all samples before normalization to fMLP-stimulated, vehicle control treated sample in order to display percent ROS inhibition.
To validate the hits from preliminary screening in cells, several cellular functional assays were performed using different cell types to measure the effect of compounds on inhibition of ROS production. ROS levels were first analyzed by fluorescence-activated cell sorting (FACS) in HL-60 pre-incubated with compounds for 2 hr prior to stimulation of ROS production. The p67^phox inhibitor, Phox-I1, was tested against NAC (a ROS scavenger), DPI (a broad range inhibitor of NADPH oxidase), and NSC23766 (a Rac-GTP inhibitor; FIG. 2A). […] H2O2 added to the cells was included as a positive control for ROS measurement. Second, to test the capacity of Phox-I1 to inhibit ROS production in a primary cell context, primary murine neutrophils isolated from mouse bone marrow were treated with increasing concentrations of Phox-I1 and the efficacy of inhibition of fMLP-stimulated ROS production was analyzed. DPI treatment was included as a positive control for inhibition of ROS production (FIG. 2B). […] Next, to ascertain the optimal effective dose for ROS inhibition in cells, a dose titration series of Phox-I1 was administered to dHL-60 cells (FIG. 2C).

[2] = test system: primary human neutrophils; experiment: luminol chemiluminescence assay of fMLP-induced ROS production; assay type: cell-based
Experimental: (§1) HL-60 cells were propagated in RPMI 1640 medium containing 10% heat inactivated fetal bovine serum, 2 mM L-glutamine, 100 U/mL penicillin/streptomycin at 37° C. in air containing 5% CO2. For differentiation, HL-60 cells were cultured in 1.3% dimethyl sulfoxide (DMSO) as previously described (Servant, G., et al. (1999) Mol Biol Cell 10, 1163-1178, hereby incorporated by reference in its entirety). Primary murine neutrophils were isolated from C57Bl/6 mouse bone marrow according to a published protocol (Filippi et al., (2004) Nat Immunol 5, 744-751, hereby incorporated by reference in its entirety) using a discontinuous Percoll (Pharmacia) gradient and were utilized immediately in experiments. Human neutrophils were obtained from fresh blood (IRB #2010-1855, Cincinnati Children's Hospital medical Center) following a well established protocol using density gradient separation from whole blood (Oh et al. (2008) J Vis Exp., 17, pii: 745, hereby incorporated by reference in its entirety). […]
Chemiluminescence was measured using GloMax®-96 Microplate Luminometer (Promega) (Tarpey et al., (2004) Am J Physiol Regul Integr Comp Physiol 286: R431-R444, hereby incorporated by reference in its entirety). […]

p67^phox mutation, R188A = molecular target: T1, p67^phox mutation, R188A (Homo sapiens, UniProt P19878, R188A); experiment: microscale thermophoresis binding to p67phox R188A mutant; conditions: residue outside region critical for Rac1-GTP interaction
T1 construct: using the pET30-HIS p67(1-212) plasmid; His; made in house; host or cells: E. coli BL21(DE3)
T1 sequence (P19878 1-212 R188A): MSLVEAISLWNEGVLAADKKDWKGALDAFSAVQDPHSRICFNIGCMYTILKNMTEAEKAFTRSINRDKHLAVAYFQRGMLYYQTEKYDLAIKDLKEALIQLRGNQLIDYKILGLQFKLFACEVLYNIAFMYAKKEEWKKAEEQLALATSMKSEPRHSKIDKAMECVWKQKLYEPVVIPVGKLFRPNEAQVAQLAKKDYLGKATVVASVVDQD
Experimental: The p67^phox protein was expressed in BL21(DE3) bacteria (Stratagene) using the pET30-HIS p67(1-212) plasmid. Protein was purified using the QIAexpress Ni-NTA kit (Qiagen) or the GST Bind Resin Chromatography Kit (Novagen) for RacV12 and RacWT proteins. Mutagenesis was carried out using the Quick Change Lightening Site Directed Mutagenesis Kit (Stratagene).
Proteins were labeled for microscale thermophoresis using the Monolith NT Protein Labeling Kit Red (Nano Temper Technologies) as recommended by the manufacturer. Binding reactions were carried out using the Monolith NT. 115 (Nano Temper Technologies). Binding data was analyzed using Graphpad Prizm to estimate Kd values. The arbitrary fluorescence value from the thermophoresis plots for the smallest compound titration was subtracted from every other data point (Delta depletion) prior to normalization to a Vmax of 100. In thermophoresis plots where there was no binding, a curve could not be fit and therefore no Vmax could be assigned. In these instances the highest delta depletion value was set to 100 and all data were normalized accordingly.
Next, to perform a competition binding, p67^phox protein was first incubated with either 5 μM Phox-I1 or an equal volume of vehicle control for 15 min prior to titration of purified Rac1V12 protein. […]

[3] = test system: primary murine neutrophils; experiment: H2-DCFDA FACS ROS production assay in primary murine neutrophils; assay type: cell-based, mouse; conditions: 10 μM and 20 μM
Experimental: as §1, with “experiments.” for “experiments. Human neutrophils were obtained from fresh blood (IRB #2010-1855, Cincinnati Children's Hospital medical Center) following a well established protocol using density gradient separation from whole blood (Oh et al. (2008) J Vis Exp., 17, pii: 745, hereby incorporated by reference in its entirety).”
Cells (5×10^5) were harvested and processed for Annexin V/7AAD staining according to manufacturer's protocol (Becton Dickinson). Flow cytometry data were acquired on a FACS Canto bench-top flow cytometer (Becton Dickinson) and the cell cycle distributions were determined by […] using Flo-Jo software (Bosco et al (2010) Blood 115, 3320-3328, hereby incorporated by reference in its entirety). […] Cells were then stimulated with 10 μM fMLP (Sigma), 1 mM CaCl2, and 1.5 mM MgCl2 for 15 minutes prior to wash and FACS analysis for mean fluorescence intensity. […]

Row | IC50 [1] [µM] | IC50 [2] [µM] | binding to p67^phox R188 mutant (p67^phox mutation, R188A) | IC50 ([1]; Homo sapiens, HL-60) [µM] | IC50 ([2]; Neutrophil) [µM] | SMILES | inhibition of ROS production, Phox-I1 analogs ([1]; pre-incubated 2 hr, listed as Analog 16) | inhibition of ROS production, Phox-I1 analogs ([1]; pre-incubated 2 hr, listed as analog 16) | ROS production compared to standard ROS inhibitors ([1]; 20 μM, pre-incubated 2 hr) | dose of optimal cellular response ([1]; dose titration in dHL-60 cells) [µM] | inhibition of ROS production, Phox-I1 analogs ([1]; pre-incubated 2 hr) | inhibition of fMLP-stimulated ROS production [3]
1 | ~1 | ~6 | – | – | – | O=[N+]([O-])c1cccc(C2Nc3ccc([N+](=O)[O-])cc3C3C=CCC32)c1 (centres unmarked) [Phox-I2] | improved ROS inhibition over Phox1 | greatest inhibition of ROS production | – | – | – | –
2 | – | – | retained the binding activity | ~3 | ~8 | COc1ccc2c(c1)C1C=C(c3ccccc3)NN1C(c1cccc([N+](=O)[O-])c1)O2 (centres unmarked) [Phox-I1] | – | – | able to attenuate ROS production | 10 | greatest inhibition of ROS production | able to inhibit ROS production nearly as well as DPI at 100 μM concentration
